Patent US20130131018A1, “SUBSTITUTED ISOQUINOLINES AND THEIR USE AS TUBULIN POLYMERIZATION INHIBITORS” (Exonhit S.A., priority 2010, published 2013)
Where a name gives a salt, the structure may show the parent alone. Read-outs that look alike come from different tables or passages of the source.

How the values were obtained:
[1] = target: T1, colchicine site on tubulin (biotinylated porcine tubulin) (Sus scrofa, UniProt P02550+P02554); assay: Tubulin displacement assay (3H-colchicine radioligand binding, SPA)
T1 construct: biotin (chemical label)
Experimental: The assay was developped following the method published by Tahir et al. (2001) and others using biotinylated porcine tubulin captured to streptavidin coated yttrium silicate scintillation proximity assay (YSi SPA) beads in a PIPES/EGTA/MgCl2/GTP buffer. […] IC50s were determined using GraphPad Prism Version 5.01 and the sigmoidal dose response with variable slope curve fit.

purified tubulin = target: T2, purified tubulin (Sus scrofa, UniProt P02550+P02554); assay: Tubulin polymerisation assay (CytoDYNAMIX Screen kit, absorbance at 340 nm); type: biochemical; details: for inhibition at 5 µM / % Inhibition of tubulin polymerization at 5 μM: 5 μM compound, 4 mg/ml tubulin; for inhibition at 5 µM: read-out: % Inhibition of tubulin polymerization at 5 μM; for IC50: tubulin polymerization
T2 construct: purchased Cytoskeleton #BK006P
Experimental: The polymerization of purified tubulin was monitored spectrophotometrically by the change in absorbance at 340 nm using the CytoDYNAMIX Screen kit (#BK006P, Cytoskeleton) according to the instructions of the manufacturer. […] The absorbance was measured at 1 minute intervals for 60 minutes. The test compound was added to a 4 mg/ml tubulin solution containing 10% glycerol and 1 mM GTP in Buffer 1 (Buffer 1: 80 mM PIPES; 2 mM MgCl2; 0.5 mM EGTA, pH 6.9). Increased absorbance indicates increase in microtubule formation from tubulin heterodimers.

HUVEC = assay: Pre-established vessels disruption (capillary tubes on Matrigel); type: cell-based; details: HUVEC tubes formed 5 hours, then compounds overnight
Experimental: To explore the effect of the compounds on pre-established vasculature, twenty thousand cells (HUVEC) were seeded and incubated over Matrigel for 5 hours to allow the capillary tubes to form. Then, compounds were added and incubated overnight. The disappearance of existing vasculature was monitored with fluorescent microscopy.

K562 cell line = assay: MTT assay: cytotoxicity against the K562 cell line; type: cell-based; details: K562 cells, 72 h, growth inhibition
Outline: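 Fifteen thousand K562 cells per well were exposed in triplicate to a compound dilution series for 72 h at 37 °C, 5% CO2. Viability was measured by MTT absorbance at 550 nm relative to untreated control, and IC50 was obtained by nonlinear regression.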

[2] = tested on: Endothelial cells (HUVEC); assay: Neovessels formation inhibition (capillary tube formation on Matrigel); type: cell-based
Experimental: The capability of compounds to inhibit the formation of capillaries was evaluated in vitro. Twenty thousand Endothelial cells (HUVEC) were placed on a Matrigel matrix and allowed to form capillary tubes in the presence or absence of the compounds overnight. The cells were stained with calcein AM, and the effect of the compounds on capillary tube formation was assessed using an inverted fluorescent microscope (Nikon). The reference compound used in this assay AVE-8063 is 3-amino-deoxycombretastatin A-4.

blood flow = details: animal studies, cited from earlier work
[3] = phase 1 studies, cited from earlier work
[4] = competition with 50 nM [3H]-colchicine, 4 h at 37° C., read-out: IC50
[5] = Homo sapiens, read-out: Pre-established Vessels Disruption Number of Branch Junctions IC50
[6] = Homo sapiens, read-out: Pre-established Vessels Disruption Total Tubule Length IC50
[7] = Homo sapiens, HUVEC on Matrigel, compounds overnight, read-out: Neovessels Formation Inhibition Number of Branch Junctions IC50
[8] = Homo sapiens, HUVEC on Matrigel, compounds overnight, read-out: Neovessels Formation Inhibition Total Tubule Length IC50
[9] = read-out: Pre-established Vessels Disruption Number of Branch Junctions IC50
[10] = read-out: Pre-established Vessels Disruption Total Tubule Length IC50
[11] = HUVEC on Matrigel, compounds overnight, read-out: Neovessels Formation Inhibition Number of Branch Junctions IC50
[12] = HUVEC on Matrigel, compounds overnight, read-out: Neovessels Formation Inhibition Total Tubule Length IC50

T1 sequence (P02554 whole entry): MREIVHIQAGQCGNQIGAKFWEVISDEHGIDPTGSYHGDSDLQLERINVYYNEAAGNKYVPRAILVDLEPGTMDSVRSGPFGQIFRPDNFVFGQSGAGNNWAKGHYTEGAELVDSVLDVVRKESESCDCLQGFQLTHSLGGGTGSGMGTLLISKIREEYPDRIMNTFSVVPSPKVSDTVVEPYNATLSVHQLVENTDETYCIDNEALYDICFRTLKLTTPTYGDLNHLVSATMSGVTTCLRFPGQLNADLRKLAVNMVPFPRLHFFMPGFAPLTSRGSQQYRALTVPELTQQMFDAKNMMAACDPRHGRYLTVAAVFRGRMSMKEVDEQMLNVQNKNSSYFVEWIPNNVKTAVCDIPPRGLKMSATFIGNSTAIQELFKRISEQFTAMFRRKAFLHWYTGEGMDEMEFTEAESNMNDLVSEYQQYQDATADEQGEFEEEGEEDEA
T1 sequence (P02550 whole entry): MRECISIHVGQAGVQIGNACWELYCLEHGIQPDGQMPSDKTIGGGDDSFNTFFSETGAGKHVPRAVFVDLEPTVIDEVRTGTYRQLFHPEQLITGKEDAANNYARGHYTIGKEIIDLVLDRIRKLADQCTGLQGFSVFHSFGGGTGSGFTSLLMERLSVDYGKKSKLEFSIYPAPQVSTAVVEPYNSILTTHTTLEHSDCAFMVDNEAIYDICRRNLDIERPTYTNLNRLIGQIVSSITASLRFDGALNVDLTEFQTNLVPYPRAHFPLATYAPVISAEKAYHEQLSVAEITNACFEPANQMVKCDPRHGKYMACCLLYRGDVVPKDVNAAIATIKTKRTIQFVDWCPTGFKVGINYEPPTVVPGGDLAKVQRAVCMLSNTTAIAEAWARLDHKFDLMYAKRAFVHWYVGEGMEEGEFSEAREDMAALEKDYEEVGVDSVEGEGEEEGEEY
T2 sequence (P02554 whole entry): as the sequence (P02554 whole entry) above
T2 sequence (P02550 whole entry): as the sequence (P02550 whole entry) above

Row | IC50 [1, 4] [nM] | inhibition at 5 µM (purified tubulin) [%] | IC50 (purified tubulin) [nM] | Structure (SMILES) | IC50 (HUVEC; [5]) [nM] | IC50 (HUVEC; [6]) [nM] | IC50 (K562 cell line; Homo sapiens) [nM] | IC50 [2, 7] [nM] | IC50 [2, 8] [nM] | other results
1 | 745 | 21.5 |  | CCOc1ccc2c(C(=O)c3cc(OC)c(OCC)c(OC)c3)cncc2c1NS(N)(=O)=O [Compound 59, 7-Ethoxy-4-(4-ethoxy-3,5-dimethoxybenzoyl)isoquinolin-8-yl sulfamide] | 27.1 | 38.2 | 7.04 | 8.32 | 25.2 | 
2 | 1600 |  | 3440 | COc1cc(Cc2cncc3c(OC)c(OC)ccc23)cc(OC)c1OC [Compound 10, 4-(3,4,5-Trimethoxybenzyl)-7,8-dimethoxyisoquinoline hydrochloride] |  |  | 283 |  |  | 
3 | 170 | 76.6 | 1040 | CCOc1ccc2c(Cc3cc(OC)c(OC)c(OC)c3)cncc2c1N [Compound 3, 7-Ethoxy-4-(3,4,5-trimethoxybenzyl)isoquinolin-8-amine dihydrochloride] | 14.9 | 45.6 | 10.7 | 15.3 | 21.8 | 
4 | 41.4 | 4 |  | CCOc1ccc2c(C(=O)c3cc(OC)c(OC)c(OC)c3)cncc2c1O [Compound 97, (7-Ethoxy-8-hydroxyisoquinolin-4-yl)(3,4,5-trimethoxyphenyl)methanone hydrochloride] | 6.65 | 8.82 | 4.86 | 4.04 | 5.52 | 
5 | 38.7 | 10 |  | CCCOc1c(OC)cc(C(=O)c2cncc3c(O)c(OCC)ccc23)cc1OC [Compound 67, (3,5-Dimethoxy-4-propoxyphenyl)(7-ethoxy-8-hydroxyisoquinolin-4-yl)methanone hydrochloride] | 9.18 | 12.6 | 4.64 | 3.84 | 4.8 | 
6 |  | 58.8 | 1130 | CCOc1ccc2c(C(=O)c3cc(OC)c(OC)c(OC)c3)cncc2c1 [Compound 40, (7-Ethoxyisoquinolin-4-yl)(3,4,5-trimethoxyphenyl)methanone hydrochloride] | 32.8 | 53.4 | 19.6 | 8.2 | 12.9 | 
7 |  | 77.7 | 1050 | CC[C@]1(O)C[C@@H]2CN(CCc3c([nH]c4ccccc34)[C@@](C(=O)OC)(c3cc4c(cc3OC)N(C)[C@H]3[C@@](O)(C(=O)OC)[C@H](OC(C)=O)[C@]5(CC)C=CCN6CC[C@]43[C@@H]65)C2)C1 [Vinblastine, reference compound] | 2.09 | 5.39 | 3.66 | 1.55 | 3.44 | 
8 |  | 65.1 | 1940 | CCOc1ccc2c(C(=O)c3cc(OC)c(OCC)c(OC)c3)cncc2c1O [Compound 56, (4-Ethoxy-3,5-dimethoxyphenyl)(7-ethoxy-8-hydroxyisoquinolin-4-yl)methanone hydrochloride] | 14.4 | 16.1 | 4.39 | 10.7 | 12.2 | 
9 | 3300 | 54.5 |  | CCOc1ccc2c(C(=O)c3cc(OC)c(OC)c(OC)c3)cncc2c1OC(C)=O [Compound 96, 7-Ethoxy-4-(3,4,5-trimethoxybenzoyl)isoquinolin-8-yl acetate] | 9.14 | 15.3 | 5.85 | 5.07 | 8.1 | 
10 |  |  | 1780 | COc1cc(C(=O)c2c(C)oc3c(O)c(OC)ccc23)cc(OC)c1OC [BNC105, reference compound] |  |  |  |  |  | % Inhibition of tubulin polymerization at 5 μM (purified tubulin): 64.75%; IC50 (HUVEC; [9]): 5.2 nM; IC50 (HUVEC; [10]): 6.37 nM; IC50 (K562 cell line): 0.55 nM; IC50 [2, 11]: 1.76 nM; IC50 [2, 12]: 2.49 nM
11 |  |  |  | COc1ccc(/C=C\c2cc(OC)c(OC)c(OC)c2)cc1OP(=O)([O-])[O-].[Na+].[Na+] [CA4P, CA-4 disodium phosphate] |  |  |  |  |  | blood flow decrease in heart, kidney, and intestine (blood flow; heart, kidney, intestine): no significant decrease; blood flow reduction in spleen, skeletal muscle, and brain (blood flow; spleen, skeletal muscle, brain): less than 7 fold; blood flow reduction in the tumor (blood flow; tumor): 100 fold; dose-limiting toxicities ([3]; administered intravenously): dyspnea, neurological disturbances (syncope, motor neuropathy, ataxia), and cardiac and intestinal ischemia; Responses seen in [3]: thyroid cancer, sarcoma, and adrenocortical carcinoma
12 |  | 35 |  | CCOc1ccc2c(C(=O)c3cc(OC)c(OC)c(OC)c3)cncc2c1NS(N)(=O)=O [Compound 105, N-(7-Ethoxy-4-(3,4,5-trimethoxybenzoyl)isoquinolin-8-yl)sulfamide hydrochloride] | 9.27 | 9.3 | 4.18 | 5.71 | 8.06 | 
13 | 220 | 85 | 1190 | CCOc1ccc2c(Cc3cc(OC)c(OC)c(OC)c3)cncc2c1O [Compound 1, 4-(3,4,5-Trimethoxybenzyl)-7-ethoxyisoquinolin-8-ol hydrochloride] |  |  | 29.1 | 38.5 | 54.5 | 
14 |  |  | 4100 | COc1cc(C(=O)c2c(C)oc3c(OP(=O)([O-])O)c(OC)ccc23)cc(OC)c1OC.[Na+] [BNC105P, reference compound] |  |  |  |  |  | % Inhibition of tubulin polymerization at 5 μM (purified tubulin): 39.00%; IC50 (HUVEC; [9]): 5.83 nM; IC50 (HUVEC; [10]): 7.37 nM; IC50 (K562 cell line): 17.3 nM; IC50 [2, 11]: 0.44 nM; IC50 [2, 12]: 1.53 nM
15 | 91.9 | 17 |  | CCOc1ccc2c(C(=O)c3cc(OC)c(OCC)c(OC)c3)cncc2c1OS(N)(=O)=O [Compound 57, 7-Ethoxy-4-(4-ethoxy-3,5-dimethoxybenzoyl)isoquinolin-8-yl sulfamate] | 4.37 | 6.72 | 2.69 | 2.65 | 3.97 | 

Row | Structure (SMILES) | IC50 [1, 4] [nM] | inhibition at 5 µM (purified tubulin) [%] | IC50 (purified tubulin) [nM] | IC50 (HUVEC; [5]) [nM] | IC50 (HUVEC; [6]) [nM] | IC50 (K562 cell line; Homo sapiens) [nM] | IC50 [2, 7] [nM] | IC50 [2, 8] [nM] | other results
16 | CCOc1ccc2c(C(=O)c3cc(OC)c(OC)c(OC)c3)cncc2c1OP(=O)(O)O [Compound 98, 7-ethoxy-4-(3,4,5-trimethoxybenzoyl)isoquinolin-8-yl disodium phosphate] |  | 49 |  | 9.22 | 15.1 | 7.57 |  |  | IC50 [1]: 121 nM; IC50 ([2]; Homo sapiens, HUVEC, read-out: Neovessels Formation Inhibition Number of Branch Junctions IC50 (nM)): 3.68 nM; IC50 ([2]; Homo sapiens, HUVEC, read-out: Neovessels Formation Inhibition Total Tubule Length IC50 (nM)): 6.5 nM
17 | COc1ccc(/C=C\c2cc(OC)c(OC)c(OC)c2)cc1N [AVE8063, 3-amino-deoxycombretastatin A-4, reference compound] |  |  | 1070 |  |  |  |  |  | % Inhibition of tubulin polymerization at 5 μM (purified tubulin): 71.29%; IC50 (HUVEC; [9]): 5.72 nM; IC50 (HUVEC; [10]): 7.74 nM; IC50 (K562 cell line): 2.71 nM; IC50 [2, 11]: 3.12 nM; IC50 [2, 12]: 5.33 nM
